Reference: ChEMBL document CHEMBL5649166, “RIP3 induces apoptosis independent of pronecrotic kinase activity” (Mol Cell, 2014)

Tests used:
[1] = molecular target: T1, Inhibitor of nuclear factor kappa-B kinase subunit beta (Homo sapiens) (UniProt O14920); assay: Inhibition of human IKKb/IKBKB using KKKKERLLDDRHDSGLDSMKDEE as substrate at 1 uM in presence of 32P-ATP by Hotspot assay relative to control; values are per cent of control
T1 sequence (whole entry): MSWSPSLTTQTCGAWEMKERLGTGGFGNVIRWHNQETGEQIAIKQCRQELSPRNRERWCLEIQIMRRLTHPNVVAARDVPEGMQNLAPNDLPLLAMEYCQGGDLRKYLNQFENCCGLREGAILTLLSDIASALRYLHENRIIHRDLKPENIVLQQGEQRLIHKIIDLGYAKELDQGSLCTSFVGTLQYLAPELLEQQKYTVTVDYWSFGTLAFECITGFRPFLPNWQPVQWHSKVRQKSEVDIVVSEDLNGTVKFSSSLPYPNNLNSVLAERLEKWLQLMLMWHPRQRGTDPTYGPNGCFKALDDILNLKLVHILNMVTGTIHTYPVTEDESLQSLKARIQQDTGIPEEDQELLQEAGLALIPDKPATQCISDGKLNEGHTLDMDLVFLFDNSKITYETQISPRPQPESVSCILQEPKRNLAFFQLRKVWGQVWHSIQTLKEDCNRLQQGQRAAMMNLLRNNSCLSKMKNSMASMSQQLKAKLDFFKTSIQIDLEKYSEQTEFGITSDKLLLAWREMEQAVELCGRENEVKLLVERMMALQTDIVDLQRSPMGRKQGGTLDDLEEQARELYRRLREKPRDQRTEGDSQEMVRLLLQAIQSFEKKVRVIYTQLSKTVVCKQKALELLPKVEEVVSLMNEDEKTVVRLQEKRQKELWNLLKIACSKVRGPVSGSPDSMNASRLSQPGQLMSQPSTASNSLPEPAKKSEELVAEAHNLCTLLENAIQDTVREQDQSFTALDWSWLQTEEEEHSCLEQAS

[2] = molecular target: Tyrosine-protein kinase CSK (Homo sapiens) (UniProt P41240); assay: Inhibition of human CSK using poly[Glu:Tyr] (4:1) as substrate at 1 uM in presence of 32P-ATP by Hotspot assay relative to control; values are per cent of control
[3] = molecular target: T2, Myotonin-protein kinase (Homo sapiens) (UniProt Q09013); assay: Inhibition of human DMPK using KKRNRRLSVA as substrate at 1 uM in presence of 32P-ATP by Hotspot assay relative to control; values are per cent of control
T2 sequence (whole entry): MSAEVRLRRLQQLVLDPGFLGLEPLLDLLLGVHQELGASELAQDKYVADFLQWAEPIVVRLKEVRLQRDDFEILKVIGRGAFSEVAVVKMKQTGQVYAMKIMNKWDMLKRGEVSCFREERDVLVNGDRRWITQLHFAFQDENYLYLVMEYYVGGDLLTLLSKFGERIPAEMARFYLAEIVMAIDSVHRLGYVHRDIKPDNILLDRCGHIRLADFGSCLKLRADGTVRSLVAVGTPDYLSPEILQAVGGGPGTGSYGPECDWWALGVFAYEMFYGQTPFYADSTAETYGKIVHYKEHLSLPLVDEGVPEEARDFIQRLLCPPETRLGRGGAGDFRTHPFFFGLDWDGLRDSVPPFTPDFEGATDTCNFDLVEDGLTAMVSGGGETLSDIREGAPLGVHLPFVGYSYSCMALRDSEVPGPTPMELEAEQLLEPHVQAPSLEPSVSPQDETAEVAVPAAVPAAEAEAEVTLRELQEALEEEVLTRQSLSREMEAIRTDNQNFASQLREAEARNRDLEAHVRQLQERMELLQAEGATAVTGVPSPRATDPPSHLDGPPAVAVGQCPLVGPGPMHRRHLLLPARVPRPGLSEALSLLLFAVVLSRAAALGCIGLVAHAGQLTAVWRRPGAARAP

[4] = molecular target: Wee1-like protein kinase (Homo sapiens) (UniProt P30291); assay: Inhibition of human WEE1 using CDK1 (D146N)/cyclin B1 as substrate at 1 uM in presence of 32P-ATP by Hotspot assay relative to control; values are per cent of control
[5] = molecular target: T3, Ephrin type-A receptor 3 (Homo sapiens) (UniProt P29320); assay: Inhibition of human EPHA3 using poly[Glu:Tyr] (4:1) as substrate at 1 uM in presence of 32P-ATP by Hotspot assay relative to control; values are per cent of control
T3 sequence (whole entry): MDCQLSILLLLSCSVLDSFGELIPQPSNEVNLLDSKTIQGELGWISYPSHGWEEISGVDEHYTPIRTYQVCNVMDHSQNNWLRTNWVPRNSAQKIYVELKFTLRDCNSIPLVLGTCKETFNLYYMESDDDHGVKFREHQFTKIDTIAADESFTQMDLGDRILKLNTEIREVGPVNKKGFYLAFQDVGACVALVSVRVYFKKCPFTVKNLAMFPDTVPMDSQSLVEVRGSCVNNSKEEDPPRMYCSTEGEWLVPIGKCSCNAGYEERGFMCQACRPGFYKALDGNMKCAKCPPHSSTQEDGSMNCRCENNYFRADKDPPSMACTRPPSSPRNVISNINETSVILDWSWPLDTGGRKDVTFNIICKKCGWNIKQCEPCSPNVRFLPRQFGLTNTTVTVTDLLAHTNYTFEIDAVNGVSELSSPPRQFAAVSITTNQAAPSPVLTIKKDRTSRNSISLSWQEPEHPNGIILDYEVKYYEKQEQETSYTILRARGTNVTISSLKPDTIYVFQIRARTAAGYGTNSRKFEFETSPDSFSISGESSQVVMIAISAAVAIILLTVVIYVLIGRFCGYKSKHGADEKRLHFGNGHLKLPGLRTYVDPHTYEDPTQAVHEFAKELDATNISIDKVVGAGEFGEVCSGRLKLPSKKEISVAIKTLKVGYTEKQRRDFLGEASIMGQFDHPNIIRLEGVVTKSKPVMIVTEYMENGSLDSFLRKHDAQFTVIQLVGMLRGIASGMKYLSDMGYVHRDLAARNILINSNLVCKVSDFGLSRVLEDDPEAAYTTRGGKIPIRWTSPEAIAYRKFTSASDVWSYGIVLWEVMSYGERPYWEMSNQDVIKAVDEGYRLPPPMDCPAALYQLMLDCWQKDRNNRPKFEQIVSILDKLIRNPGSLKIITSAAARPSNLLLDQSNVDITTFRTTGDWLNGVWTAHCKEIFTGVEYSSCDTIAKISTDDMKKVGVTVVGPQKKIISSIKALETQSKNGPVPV

[6] = molecular target: Macrophage-stimulating protein receptor (Homo sapiens) (UniProt Q04912); assay: Inhibition of human RON/MST1R using KKSRGDYMTMQIG as substrate at 1 uM in presence of 32P-ATP by Hotspot assay relative to control
Macrophage-stimulating protein receptor (Homo sapiens), sequence (Q04912 25-304 limits assumed): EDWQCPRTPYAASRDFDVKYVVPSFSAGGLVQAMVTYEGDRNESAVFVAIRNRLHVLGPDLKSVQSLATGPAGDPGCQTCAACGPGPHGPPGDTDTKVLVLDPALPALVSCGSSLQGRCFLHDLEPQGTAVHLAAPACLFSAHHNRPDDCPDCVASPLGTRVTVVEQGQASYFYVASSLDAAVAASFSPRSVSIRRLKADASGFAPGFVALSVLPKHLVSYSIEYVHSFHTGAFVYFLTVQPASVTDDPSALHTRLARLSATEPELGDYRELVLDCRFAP
Macrophage-stimulating protein receptor (Homo sapiens), sequence (Q04912 310-1400 limits assumed): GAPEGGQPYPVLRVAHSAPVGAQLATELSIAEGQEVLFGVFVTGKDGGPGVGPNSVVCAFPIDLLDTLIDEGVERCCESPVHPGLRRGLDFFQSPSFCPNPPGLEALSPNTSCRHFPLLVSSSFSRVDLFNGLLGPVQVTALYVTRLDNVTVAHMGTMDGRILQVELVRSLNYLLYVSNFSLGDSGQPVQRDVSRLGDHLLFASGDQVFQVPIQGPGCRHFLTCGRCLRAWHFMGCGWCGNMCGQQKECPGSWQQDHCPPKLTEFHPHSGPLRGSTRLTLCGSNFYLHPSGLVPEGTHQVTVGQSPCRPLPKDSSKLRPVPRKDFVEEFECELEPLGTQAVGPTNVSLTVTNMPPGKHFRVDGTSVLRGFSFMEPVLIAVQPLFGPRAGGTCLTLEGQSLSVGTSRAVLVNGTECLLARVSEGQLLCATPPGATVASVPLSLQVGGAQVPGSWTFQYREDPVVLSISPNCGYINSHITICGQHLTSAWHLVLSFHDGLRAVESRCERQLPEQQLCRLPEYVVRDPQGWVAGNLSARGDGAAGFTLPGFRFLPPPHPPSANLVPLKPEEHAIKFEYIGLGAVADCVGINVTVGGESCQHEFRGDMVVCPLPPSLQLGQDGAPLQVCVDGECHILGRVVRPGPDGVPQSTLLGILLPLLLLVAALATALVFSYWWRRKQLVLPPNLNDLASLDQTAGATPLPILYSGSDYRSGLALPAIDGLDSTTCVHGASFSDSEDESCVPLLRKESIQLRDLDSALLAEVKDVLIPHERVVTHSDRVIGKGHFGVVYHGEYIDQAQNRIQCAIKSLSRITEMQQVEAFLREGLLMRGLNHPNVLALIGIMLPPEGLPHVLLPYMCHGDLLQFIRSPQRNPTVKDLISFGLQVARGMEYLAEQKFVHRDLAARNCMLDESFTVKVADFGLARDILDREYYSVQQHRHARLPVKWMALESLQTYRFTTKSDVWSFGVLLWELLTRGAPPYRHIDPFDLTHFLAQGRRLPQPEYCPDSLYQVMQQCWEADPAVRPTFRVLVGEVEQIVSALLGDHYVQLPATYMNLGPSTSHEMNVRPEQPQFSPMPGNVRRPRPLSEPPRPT

Wee1-like protein kinase (Homo sapiens), sequence (P30291 whole entry, looked up): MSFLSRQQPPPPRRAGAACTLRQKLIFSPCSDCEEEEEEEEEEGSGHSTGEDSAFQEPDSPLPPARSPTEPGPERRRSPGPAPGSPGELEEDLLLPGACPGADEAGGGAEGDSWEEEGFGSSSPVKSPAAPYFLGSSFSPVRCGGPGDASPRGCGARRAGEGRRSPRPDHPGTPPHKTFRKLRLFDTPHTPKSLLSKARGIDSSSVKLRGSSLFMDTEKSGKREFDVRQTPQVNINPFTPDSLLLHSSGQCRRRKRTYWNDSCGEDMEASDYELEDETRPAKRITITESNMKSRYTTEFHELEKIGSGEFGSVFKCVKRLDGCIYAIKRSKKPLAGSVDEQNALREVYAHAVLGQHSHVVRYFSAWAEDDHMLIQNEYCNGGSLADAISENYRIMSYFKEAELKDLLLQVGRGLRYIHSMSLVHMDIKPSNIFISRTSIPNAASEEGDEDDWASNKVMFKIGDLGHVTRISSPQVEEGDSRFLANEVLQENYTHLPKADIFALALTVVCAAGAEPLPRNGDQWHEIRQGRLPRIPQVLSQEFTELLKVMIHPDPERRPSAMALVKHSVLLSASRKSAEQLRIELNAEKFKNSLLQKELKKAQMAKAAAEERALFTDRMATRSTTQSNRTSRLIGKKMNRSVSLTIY
Tyrosine-protein kinase CSK (Homo sapiens), sequence (P41240 2-450 limits assumed): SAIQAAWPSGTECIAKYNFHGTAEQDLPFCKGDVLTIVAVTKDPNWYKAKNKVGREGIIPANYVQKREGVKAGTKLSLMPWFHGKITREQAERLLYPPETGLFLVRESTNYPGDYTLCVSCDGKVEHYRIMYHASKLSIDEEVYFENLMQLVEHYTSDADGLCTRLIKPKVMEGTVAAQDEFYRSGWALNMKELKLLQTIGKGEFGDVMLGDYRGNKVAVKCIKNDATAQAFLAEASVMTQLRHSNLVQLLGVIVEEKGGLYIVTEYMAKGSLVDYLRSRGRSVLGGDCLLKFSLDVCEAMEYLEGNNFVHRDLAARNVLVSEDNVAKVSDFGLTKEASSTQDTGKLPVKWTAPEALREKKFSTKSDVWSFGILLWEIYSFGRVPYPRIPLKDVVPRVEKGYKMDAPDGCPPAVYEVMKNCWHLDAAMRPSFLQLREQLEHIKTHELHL

## Cc1cc(-c2cnc(N)c3c(-c4ccc5scnc5c4)csc23)n(C)n1
[1]
  residual activity: 104%
[2]
  residual activity: 69.5%
[3]
  residual activity: 92.1%
[4]
  residual activity: 72.9%
[5]
  residual activity: 80%
[6]
  inhibition: 91.3%

## CC(C)S(=O)(=O)c1ccc2nccc(Nc3ccc4scnc4c3)c2c1
[1]
  residual activity: 93.3%
[2]
  residual activity: 58.8%
[3]
  residual activity: 103%
[4]
  residual activity: 106%
[5]
  residual activity: 92%
[6]
  inhibition: 56.6%

## CNC(=O)c1ccc2c(c1)ncn2-c1ccc(CC(=O)OC(C)(C)C)cc1
[1]
  residual activity: 90.2%
[2]
  residual activity: 78.6%
[3]
  residual activity: 107%
[4]
  residual activity: 108%
[5]
  residual activity: 82.7%
[6]
  inhibition: 97.8%
